PMC4081830, “Structure of the Trehalose-6-phosphate Phosphatase from Brugia malayi Reveals Key Design Principles for Anthelmintic Drugs” (PLoS Pathogens, 2014)

Columns and labels:
[1] = target: T1, B. malayi T6PP (trehalose-6-phosphate phosphatase), wild type (Brugia malayi, UniProt A8NS89); assay: inhibition kinetics; format: biochemical
T1 construct: gene Bm1_08695; full-length (492 residues) from cDNA library, modified pET-15b(TEV), E. coli T7 Express; N-terminal His-tag removed by TEV protease
T1 sequence (A8NS89 1-492): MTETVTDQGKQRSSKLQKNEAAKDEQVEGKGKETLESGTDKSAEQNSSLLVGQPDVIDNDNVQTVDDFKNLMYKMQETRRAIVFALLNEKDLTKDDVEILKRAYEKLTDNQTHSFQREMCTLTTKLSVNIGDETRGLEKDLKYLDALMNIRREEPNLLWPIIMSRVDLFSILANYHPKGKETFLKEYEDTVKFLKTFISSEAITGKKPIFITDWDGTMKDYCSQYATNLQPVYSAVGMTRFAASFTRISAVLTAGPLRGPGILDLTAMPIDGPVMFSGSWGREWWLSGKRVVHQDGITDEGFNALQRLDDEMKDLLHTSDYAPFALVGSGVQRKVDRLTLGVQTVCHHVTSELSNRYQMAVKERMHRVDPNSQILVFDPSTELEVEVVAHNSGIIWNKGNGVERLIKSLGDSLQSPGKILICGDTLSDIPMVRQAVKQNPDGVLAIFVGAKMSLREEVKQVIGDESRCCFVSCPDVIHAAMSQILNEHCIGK

[2] = target: T1, B. malayi T6PP (trehalose-6-phosphate phosphatase), wild type; assay: steady-state inhibition kinetics, EnzChek phosphate assay; format: biochemical; details: read-out: KI, trehalose 6-sulfate
[3] = target: T2, B. malayi T6PP (trehalose-6-phosphate phosphatase), wild type (Brugia malayi, UniProt A8NS89, D378A); assay: biochemical
T2 construct: gene Bm1_08695
Description: (§1) steady-state inhibition kinetics, EnzChek phosphate assay on B. malayi T6PP (trehalose-6-phosphate phosphatase), wild type

[4] = target: T3, B. malayi T6PP (trehalose-6-phosphate phosphatase), wild type (Brugia malayi, UniProt A8NS89, N228A); assay: biochemical
T3 construct: gene Bm1_08695
Description: as §1

[5] = target: T4, B. malayi T6PP (trehalose-6-phosphate phosphatase), wild type (Brugia malayi, UniProt A8NS89, Q332A); assay: biochemical
T4 construct: gene Bm1_08695
Description: as §1

[6] = target: T5, B. malayi T6PP (trehalose-6-phosphate phosphatase), wild type (Brugia malayi, UniProt A8NS89, K334A); assay: biochemical
T5 construct: gene Bm1_08695
Description: as §1

[7] = target: T6, B. malayi T6PP (trehalose-6-phosphate phosphatase), wild type (Brugia malayi, UniProt A8NS89, R337A); assay: biochemical
T6 construct: gene Bm1_08695
Description: as §1

[8] = target: T7, B. malayi T6PP (trehalose-6-phosphate phosphatase), wild type (Brugia malayi, UniProt A8NS89, Y225A); assay: biochemical
T7 construct: gene Bm1_08695
Description: as §1

[9] = target: T8, B. malayi T6PP (trehalose-6-phosphate phosphatase), wild type (Brugia malayi, UniProt A8NS89, S329A); assay: biochemical
T8 construct: gene Bm1_08695
Description: as §1

[10] = target: T9, B. malayi T6PP (trehalose-6-phosphate phosphatase), wild type (Brugia malayi, UniProt A8NS89, E384A); assay: biochemical
T9 construct: gene Bm1_08695
Description: as §1

[11] = target: T10, B. malayi T6PP (trehalose-6-phosphate phosphatase), wild type (Brugia malayi, UniProt A8NS89, W280A); assay: biochemical
T10 construct: gene Bm1_08695
Description: as §1

[12] = target: T11, B. malayi T6PP (trehalose-6-phosphate phosphatase), wild type (Brugia malayi, UniProt A8NS89, Y221A); assay: biochemical
T11 construct: gene Bm1_08695
Description: as §1

[13] = tested on: O=P(O)(O)OC[C@H]1O[C@H](O[C@H]2O[C@H](CO)[C@@H](O)[C@H](O)[C@H]2O)[C@H](O)[C@@H](O)[C@@H]1O; assay: steady-state kinetics, EnzChek phosphate assay; format: biochemical, Brugia malayi; details: 25 mM Tris pH 7.5, 50 mM NaCl, 5 mM MgCl2
Description: steady-state kinetics, EnzChek phosphate assay on T6PP-Δ59

[14] = substrate: O=P(O)(O)OC[C@H]1O[C@H](O[C@H]2O[C@H](CO)[C@@H](O)[C@H](O)[C@H]2O)[C@H](O)[C@@H](O)[C@@H]1O; assay: steady-state kinetics, EnzChek phosphate assay; format: biochemical, Brugia malayi; details: 25 mM Tris pH 7.5, 50 mM NaCl, 5 mM MgCl2; remark: listed apart in the source
Description: steady-state kinetics, EnzChek phosphate assay on B. malayi T6PP (trehalose-6-phosphate phosphatase), wild type

Question: Which Ki [1] does the source give for `OC[C@H]1O[C@H](O[C@H]2O[C@H](CO)[C@@H](O)[C@H](O)[C@H]2O)[C@H](O)[C@@H](O)[C@@H]1O` [trehalose] here?
Answer: > 10000 µM

Question: For `O=P(O)(O)OC[C@H]1OC(O)[C@H](O)[C@@H](O)[C@@H]1O` (stereo partly shown) [glucose 6-phosphate], which Ki ([1]; no inhibition, substrate trehalose 6-phosphate) is on record?
Answer: > 10000 µM

Question: What does the source list for `O=S(=O)(O)OC[C@H]1O[C@H](O[C@H]2O[C@H](CO)[C@@H](O)[C@H](O)[C@H]2O)[C@H](O)[C@@H](O)[C@@H]1O` [trehalose 6-sulfate]?
Answer: Ki [2]: 82 ± 7 µM; Ki [3]: 320 ± 30 µM; Ki [4]: 16 ± 2 µM; Ki [5]: 1000 µM; Ki [6]: 150 ± 20 µM; Ki [7]: 700 ± 100 µM; Ki [8]: 400 ± 40 µM; Ki [9]: 240 ± 30 µM; Ki [10]: 200 ± 30 µM; Ki [11]: 270 ± 50 µM; Ki [12]: 1300 µM

Question: With T6PP-Δ59 (Brugia malayi) as the molecule, how does the Km [13] read?
Answer: 260 ± 20 µM

Question: And the kcat [13]?
Answer: 28 ± 1 s⁻¹

Question: And the kcat/Km [13]?
Answer: 110000 M⁻¹ s⁻¹

B1: B. malayi T6PP (trehalose-6-phosphate phosphatase), wild type (Brugia malayi) (protein)
chain: T1 sequence (A8NS89 1-492)
notes: full-length (492 residues) from cDNA library, modified pET-15b(TEV), E. coli T7 Express; N-terminal His-tag removed by TEV protease
Question: Which Km [14] does the source give for B1 here?
Answer: 360 ± 60 µM

Question: And the kcat [14]?
Answer: 24 ± 2 s⁻¹

Question: What about the kcat/Km [14] of the same molecule?
Answer: 69000 M⁻¹ s⁻¹
